Measured values as given in ChEMBL document CHEMBL1201862, “PubChem BioAssay data set” (2004).
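Cells were grown in 96-well plates and exposed to each compound for 48 hours at five concentrations; endpoints were interpolated linearly between bracketing concentrations, or set to the highest concentration if not reached. Here, GI50 denotes the concentration required for 50% inhibition of growth.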 The source made the active and inactive calls. Rule as the data show it: active = GI50 up to about 1.1 µM and inactive = higher.

Columns and labels:
Test in all cases: growth of human tumour cells (NCI), 48 h
UACC-257 = system: UACC-257
NCI-H522 = system: NCI-H522
KM12 = system: KM12
SR = system: SR
A498 = system: A498
SF-295 = system: SF-295
SF-539 = system: SF-539
HOP-62 = system: HOP-62
PC-3 = system: PC-3
OVCAR-8 = system: OVCAR-8
UACC-62 = system: UACC-62
SNB-19 = system: SNB-19
K562 = system: K562
786-0 = system: 786-0
SN12C = system: SN12C
U-251 = system: U-251
MDA-N = system: MDA-N
MCF7 = system: MCF7
SK-MEL-28 = system: SK-MEL-28
NCI-H23 = system: NCI-H23

SMILES	GI50 (UACC-257)	GI50 (NCI-H522)	GI50 (KM12)	GI50 (SR)	GI50 (A498)	GI50 (SF-295)	GI50 (SF-539)	GI50 (HOP-62)	GI50 (PC-3)	GI50 (OVCAR-8)	GI50 (UACC-62)	GI50 (SNB-19)	GI50 (K562)	GI50 (786-0)	GI50 (SN12C)	GI50 (U-251)	GI50 (MDA-N)	GI50 (MCF7)	GI50 (SK-MEL-28)	GI50 (NCI-H23)
CSc1nc(C)c2c(n1)N(c1ccc(Cl)cc1)CC2	> 100 µM (inactive)	> 100 µM (inactive)	> 100 µM (inactive)	> 100 µM (inactive)	> 100 µM (inactive)	> 100 µM (inactive)	70.8 µM (inactive)	> 100 µM (inactive)	> 100 µM (inactive)	> 100 µM (inactive)	> 100 µM (inactive)	> 100 µM (inactive)	88.3 µM (inactive)	77.1 µM (inactive)	> 100 µM (inactive)	> 100 µM (inactive)	> 100 µM (inactive)	> 100 µM (inactive)	> 100 µM (inactive)	> 100 µM (inactive)
N#Cc1c(Cl)cccc1Oc1ccc(S(=O)(=O)N/C(=N\O)Nc2ccc(Cl)cc2)cc1	16.9 µM (inactive)	18 µM (inactive)	17.2 µM (inactive)	23.9 µM (inactive)	15.3 µM (inactive)	17.2 µM (inactive)	17.7 µM (inactive)	17.5 µM (inactive)	16.4 µM (inactive)	18 µM (inactive)	15.5 µM (inactive)	16.3 µM (inactive)	24.2 µM (inactive)	13.6 µM (inactive)	14.8 µM (inactive)	17 µM (inactive)	16.4 µM (inactive)	17.1 µM (inactive)	19.9 µM (inactive)	17.6 µM (inactive)
Cc1cc(-c2nc3cc(F)ccc3s2)ccc1NC(=O)C(C)N (stereo not given)	4.31 µM (inactive)	4.09 µM (inactive)	3.94 µM (inactive)	0.351 µM (active)	3.77 µM (inactive)	3.82 µM (inactive)	10.4 µM (inactive)	3.97 µM (inactive)	4.13 µM (inactive)	4.54 µM (inactive)	4.02 µM (inactive)	4.72 µM (inactive)	5.62 µM (inactive)	3.76 µM (inactive)	4.32 µM (inactive)	4.36 µM (inactive)	4.21 µM (inactive)	0.0258 µM (active)	5.25 µM (inactive)	2.67 µM (inactive)
CCC1C(NC(=O)OC)C(=O)N1[C@@H](C)c1ccccc1 (stereo not given in full)	> 100 µM (inactive)	> 100 µM (inactive)	> 100 µM (inactive)	> 100 µM (inactive)	> 100 µM (inactive)	> 100 µM (inactive)	> 100 µM (inactive)	> 100 µM (inactive)	> 100 µM (inactive)	> 100 µM (inactive)	> 100 µM (inactive)	> 100 µM (inactive)	> 100 µM (inactive)	> 100 µM (inactive)	> 100 µM (inactive)	> 100 µM (inactive)	> 100 µM (inactive)	> 100 µM (inactive)	> 100 µM (inactive)	> 100 µM (inactive)
O=C(O)[C@@H]1C[C@@H](O)CN1C(=O)OCc1ccccc1	> 100 µM (inactive)	> 100 µM (inactive)	> 100 µM (inactive)	> 100 µM (inactive)	> 100 µM (inactive)	> 100 µM (inactive)	> 100 µM (inactive)	> 100 µM (inactive)	> 100 µM (inactive)	> 100 µM (inactive)	> 100 µM (inactive)	> 100 µM (inactive)	> 100 µM (inactive)	> 100 µM (inactive)	> 100 µM (inactive)	> 100 µM (inactive)	> 100 µM (inactive)	> 100 µM (inactive)	> 100 µM (inactive)	> 100 µM (inactive)
C1CNCCNCCN1	> 100 µM (inactive)	> 100 µM (inactive)	> 100 µM (inactive)	> 100 µM (inactive)	> 100 µM (inactive)	> 100 µM (inactive)	26.2 µM (inactive)	> 100 µM (inactive)	> 100 µM (inactive)	> 100 µM (inactive)	> 100 µM (inactive)	> 100 µM (inactive)	> 100 µM (inactive)	> 100 µM (inactive)	> 100 µM (inactive)	> 100 µM (inactive)	> 100 µM (inactive)	> 100 µM (inactive)	> 100 µM (inactive)	> 100 µM (inactive)
O=c1c2cccnc2[nH]c2ccc3[nH]ncc3c12	> 10 µM (inactive)	> 10 µM (inactive)	5.45 µM (inactive)	> 10 µM (inactive)	8.49 µM (inactive)	> 10 µM (inactive)	> 10 µM (inactive)	> 10 µM (inactive)	> 10 µM (inactive)	> 10 µM (inactive)	> 10 µM (inactive)	> 10 µM (inactive)	> 10 µM (inactive)	> 10 µM (inactive)	> 10 µM (inactive)	> 10 µM (inactive)	> 10 µM (inactive)	> 10 µM (inactive)	> 10 µM (inactive)	> 10 µM (inactive)
C=C1CC2(CCOc3ccc(Cl)cc32)OC1=O (stereo not given)	5.74 µM (inactive)	0.885 µM (active)	13.7 µM (inactive)	2.37 µM (inactive)	11.9 µM (inactive)	7.24 µM (inactive)	0.284 µM (active)	5.35 µM (inactive)	1.95 µM (inactive)	4.59 µM (inactive)	13.1 µM (inactive)	13.1 µM (inactive)	2.55 µM (inactive)	2.15 µM (inactive)	7.69 µM (inactive)	8.63 µM (inactive)	3.53 µM (inactive)	0.598 µM (active)	8.38 µM (inactive)	5.22 µM (inactive)
CCCCCCCCCCCCCCNC(=O)CCC(NC(=O)c1ccc(N(C)Cc2cnc3nc(N)nc(N)c3n2)cc1)C(=O)NCCCCCCCCCCCCCC (stereo not given)	10.7 µM (inactive)	5.04 µM (inactive)	2.45 µM (inactive)	0.139 µM (active)	14.5 µM (inactive)	7.19 µM (inactive)	0.908 µM (active)	9.29 µM (inactive)	0.665 µM (active)	4.36 µM (inactive)	2.63 µM (inactive)	17.1 µM (inactive)	< 0.0185 µM (active)	1.28 µM (inactive)	9.68 µM (inactive)	2.24 µM (inactive)	0.244 µM (active)	4.48 µM (inactive)	13.8 µM (inactive)	3.8 µM (inactive)
O=C(CCC(C(=O)OCc1ccccc1)C(=O)OCc1ccccc1)Nc1ccc(OCc2ccccc2)cc1	> 100 µM (inactive)	> 100 µM (inactive)	> 100 µM (inactive)	99.1 µM (inactive)	21 µM (inactive)	> 100 µM (inactive)	> 100 µM (inactive)	> 100 µM (inactive)	17.6 µM (inactive)	14.7 µM (inactive)	> 100 µM (inactive)	83.2 µM (inactive)	> 100 µM (inactive)	16.2 µM (inactive)	> 100 µM (inactive)	38.3 µM (inactive)	49.8 µM (inactive)	13.2 µM (inactive)	> 100 µM (inactive)	40.3 µM (inactive)
OC(C#Cc1ccccc1)(c1ccccc1)c1ccccc1	24.5 µM (inactive)	30.9 µM (inactive)	28 µM (inactive)	37.4 µM (inactive)	27.1 µM (inactive)	30.3 µM (inactive)	77.1 µM (inactive)	> 100 µM (inactive)	31.9 µM (inactive)	63.5 µM (inactive)	35.4 µM (inactive)	70.6 µM (inactive)	34.3 µM (inactive)	> 100 µM (inactive)	69.8 µM (inactive)	26.7 µM (inactive)	23.4 µM (inactive)	24 µM (inactive)	51.1 µM (inactive)	53.5 µM (inactive)
O=C(COC(c1ccc(F)cc1)c1ccc(F)cc1)N1CCN(CCCc2ccccc2)CC1	3.38 µM (inactive)	4.4 µM (inactive)	4.06 µM (inactive)	3.54 µM (inactive)	3.08 µM (inactive)	4.04 µM (inactive)	5.2 µM (inactive)	6.52 µM (inactive)	3.37 µM (inactive)	3.54 µM (inactive)	4.26 µM (inactive)	4.22 µM (inactive)	3.88 µM (inactive)	3.94 µM (inactive)	3.01 µM (inactive)	4.16 µM (inactive)	3.74 µM (inactive)	3.32 µM (inactive)	15.6 µM (inactive)	1.76 µM (inactive)
COc1ccc(OC)c(CSc2ccc(OC)c(OC)c2)c1	> 83.4 µM (inactive)	> 90.2 µM (inactive)	> 100 µM (inactive)	> 100 µM (inactive)	38.8 µM (inactive)	> 81.5 µM (inactive)	> 100 µM (inactive)	> 100 µM (inactive)	> 79.8 µM (inactive)	> 95.3 µM (inactive)	> 68.5 µM (inactive)	> 100 µM (inactive)	74.8 µM (inactive)	> 100 µM (inactive)	> 100 µM (inactive)	> 94.2 µM (inactive)	> 77.6 µM (inactive)	> 100 µM (inactive)	> 100 µM (inactive)	82 µM (inactive)
Cc1ccc(N)cc1.O=S(=O)(O)/C(=C\c1ccccc1)c1ccccc1	> 100 µM (inactive)	> 100 µM (inactive)	71.8 µM (inactive)	> 100 µM (inactive)	> 100 µM (inactive)	> 100 µM (inactive)	> 100 µM (inactive)	> 100 µM (inactive)	> 100 µM (inactive)	> 100 µM (inactive)	44 µM (inactive)	> 100 µM (inactive)	> 100 µM (inactive)	> 100 µM (inactive)	> 100 µM (inactive)	> 100 µM (inactive)	> 100 µM (inactive)	> 100 µM (inactive)	> 100 µM (inactive)	> 100 µM (inactive)
